# Laboratory results: ChEMBL document CHEMBL4261498, “Synthesis, characterization, and radioprotective activity of α,β-unsaturated aryl sulfone analogs and their Tempol conjugates” (Medchemcomm, 2017)
# Calls of active or inactive are those of the source. The calls are words filed in the database; no cut-off is given here.
# Tests used:
# HUVEC [1] = assay: Cytotoxicity against HUVEC after 24 hrs by MTT assay; assay type: cell-based; conditions: human
# HUVEC [2] = assay: Cytotoxicity against HUVEC at <10 uM after 24 hrs by MTT assay; assay type: cell-based; conditions: human
# HUVEC [3] = assay: Radioprotective activity against 5 Gy gamma radiation-mediated cell damage in HUVEC assessed as increase in cell survival at 0.01 to 10 uM preincubated for 2 hrs followed by 5 Gy gamma irradiation and measured after 48 hrs by MTT assay; assay type: functional, cell-based; conditions: Homo sapiens
# HUVEC [4] = assay: (§1) Radioprotective activity against 5 Gy gamma radiation-mediated cell damage in HUVEC assessed as early apoptotic cells at 0.1 uM preincubated for 2 hrs followed by 5 Gy gamma irradiation and measured after 24 hrs by annexin-V-FITC/propidium iodide staining-based flow cytometric method (reference value: 21.2%); assay type: functional, Homo sapiens
# HUVEC [5] = assay: as §1, with “late” for “early”, “9.5%)” for “21.2%)”; assay type: functional, Homo sapiens
# HUVEC [6] = assay: as §1, with “necrotic” for “early apoptotic”, “3.5%)” for “21.2%)”; assay type: functional, Homo sapiens
# HUVEC [7] = assay: (§2) Radioprotective activity against 5 Gy gamma radiation-mediated cell damage in HUVEC assessed as viable cells at 0.1 uM preincubated for 2 hrs followed by 5 Gy gamma irradiation and measured after 24 hrs by annexin-V-FITC/propidium iodide staining-based flow cytometric method (reference value: 65.8%); assay type: functional; conditions: Homo sapiens, light or radiation study, read-out: Activity
# HUVEC [8] = assay: as §1, with “1” for “0.1”; assay type: functional, Homo sapiens
# HUVEC [9] = assay: as §1, with “late” for “early”, “1” for “0.1”, “9.5%)” for “21.2%)”; assay type: functional, Homo sapiens
# HUVEC [10] = assay: (§3) Radioprotective activity against 5 Gy gamma radiation-mediated cell damage in HUVEC assessed as necrotic cells at 1 uM preincubated for 2 hrs followed by 5 Gy gamma irradiation and measured after 24 hrs by annexin-V-FITC/propidium iodide staining-based flow cytometric method (reference value: 3.5%); assay type: functional, Homo sapiens
# HUVEC [11] = assay: Radioprotective activity against 5 Gy gamma radiation-mediated cell damage in HUVEC assessed as viable cells at 1 uM preincubated for 2 hrs followed by 5 Gy gamma irradiation and measured after 24 hrs by annexin-V-FITC/propidium iodide staining-based flow cytometric method (reference value: 65.8%); assay type: functional; conditions: Homo sapiens, light or radiation study, read-out: Activity
# HUVEC [12] = assay: as §1, with “0.01” for “0.1”; assay type: functional, Homo sapiens
# HUVEC [13] = assay: as §1, with “late” for “early”, “0.01” for “0.1”, “9.5%)” for “21.2%)”; assay type: functional, Homo sapiens
# HUVEC [14] = assay: as §3, with “0.01” for “1”; assay type: functional, Homo sapiens
# HUVEC [15] = assay: as §2, with “0.01” for “0.1”; assay type: functional; conditions: Homo sapiens, light or radiation study, read-out: Activity
# HUVEC [16] = assay: Radioprotective activity against 5 Gy gamma radiation-mediated cell damage in HUVEC assessed as increase in cell survival at 0.1 to 10 uM preincubated for 2 hrs followed by 5 Gy gamma irradiation and measured after 48 hrs by MTT assay; assay type: functional, cell-based; conditions: Homo sapiens
# HUVEC [17] = assay: Radioprotective activity against 5 Gy gamma radiation-mediated cell damage in HUVEC assessed as increase in cell survival at 0.1 to 10 uM after 48 hrs by MTT assay; assay type: functional, cell-based; conditions: Homo sapiens
# HUVEC [18] = assay: as §1, with “10” for “0.1”; assay type: functional, Homo sapiens
# HUVEC [19] = assay: as §1, with “late” for “early”, “10” for “0.1”, “9.5%)” for “21.2%)”; assay type: functional, Homo sapiens
# HUVEC [20] = assay: Radioprotective activity against 5 Gy gamma radiation-mediated cell damage in HUVEC assessed as necrotic cells at 10 uM preincubated for 2 hrs followed by 5 Gy gamma irradiation and measured after 24 hrs by annexin-V-FITC/propidium iodide staining-based flow cytometric method (reference value: 3.5%); assay type: functional, Homo sapiens
# HUVEC [21] = assay: Radioprotective activity against 5 Gy gamma radiation-mediated cell damage in HUVEC assessed as viable cells at 10 uM preincubated for 2 hrs followed by 5 Gy gamma irradiation and measured after 24 hrs by annexin-V-FITC/propidium iodide staining-based flow cytometric method (reference value: 65.8%); assay type: functional; conditions: Homo sapiens, light or radiation study, read-out: Activity
# HUVEC [22] = assay: Radioprotective activity against 5 Gy gamma radiation-mediated cell damage in HUVEC assessed as reduction of total p53 levels at 0.1 to 10 uM by Western blot method; assay type: functional, cell-based; conditions: Homo sapiens
# HUVEC [23] = assay: Radioprotective activity against 5 Gy gamma radiation-mediated cell damage in HUVEC assessed as reduction of phopsho-p53 levels at 0.1 to 10 uM by Western blot method; assay type: functional, cell-based; conditions: Homo sapiens
# HUVEC [24] = assay: Radioprotective activity against 5 Gy gamma radiation-mediated cell damage in HUVEC assessed as decrease in caspase-3 activation at 0.1 to 10 uM by Western blot method; assay type: functional, cell-based; conditions: Homo sapiens
# HUVEC [25] = assay: Radioprotective activity against 5 Gy gamma radiation-mediated cell damage in HUVEC assessed as increase in Bcl-2 levels at 0.1 to 10 uM by Western blot method; assay type: functional, cell-based; conditions: Homo sapiens
# HUVEC [26] = assay: Radioprotective activity against 5 Gy gamma radiation-mediated cell damage in HUVEC assessed as decrease in Bax levels at 0.1 to 10 uM by Western blot method; assay type: functional, cell-based; conditions: Homo sapiens
# HUVEC [27] = assay: Radioprotective activity against 5 Gy gamma radiation-mediated cell damage in HUVEC assessed as increase in cell survival at 0.01 to 1 uM after 48 hrs by MTT assay; assay type: functional, cell-based; conditions: Homo sapiens
# HUVEC [28] = assay: Radioprotective activity against 5 Gy gamma radiation-mediated cell damage in HUVEC assessed as reduction of total p53 levels at 0.01 to 1 uM by Western blot method; assay type: functional, cell-based; conditions: Homo sapiens
# HUVEC [29] = assay: Radioprotective activity against 5 Gy gamma radiation-mediated cell damage in HUVEC assessed as reduction of phopsho-p53 levels at 0.01 to 1 uM by Western blot method; assay type: functional, cell-based; conditions: Homo sapiens
# HUVEC [30] = assay: Radioprotective activity against 5 Gy gamma radiation-mediated cell damage in HUVEC assessed as decrease in caspase-3 activation at 0.01 to 1 uM by Western blot method; assay type: functional, cell-based; conditions: Homo sapiens
# HUVEC [31] = assay: Radioprotective activity against 5 Gy gamma radiation-mediated cell damage in HUVEC assessed as increase in Bcl-2 levels at 0.01 to 1 uM by Western blot method; assay type: functional, cell-based; conditions: Homo sapiens
# HUVEC [32] = assay: Radioprotective activity against 5 Gy gamma radiation-mediated cell damage in HUVEC assessed as decrease in Bax levels at 0.01 to 1 uM by Western blot method; assay type: functional, cell-based; conditions: Homo sapiens
# HUVEC [33] = assay: Radioprotective activity against 5 Gy gamma radiation-mediated cell damage in HUVEC assessed as cell survival at 0.1 uM preincubated for 2 hrs followed by 5 Gy gamma irradiation and measured after 48 hrs by MTT assay relative to control; assay type: functional; conditions: Homo sapiens, light or radiation study, read-out: Survival
compound,measurement,setting,value
CC(C)(C)c1ccc(CS(=O)(=O)/C=C/c2ccc(C(=O)O)cc2)cc1,Activity,HUVEC [1],Toxic
CC(C)(C)c1ccc(CS(=O)(=O)/C=C/c2ccc(C(=O)OC3CC(C)(C)N([O])C(C)(C)C3)cc2)cc1,Activity,HUVEC [2],Non-Toxic
COc1ccc(/C=C/S(=O)(=O)Cc2ccc(Cl)cc2)cc1,Activity,HUVEC [1],Toxic
COc1ccc(CS(=O)(=O)/C=C/c2ccc(C(=O)O)cc2)cc1,Activity,HUVEC [1],Toxic
O=S(=O)(/C=C/c1ccccc1)Cc1ccc(Cl)cc1,Activity,HUVEC [1],Toxic
O=S(=O)(/C=C/c1ccc(-c2ccccc2)cc1)Cc1ccc(Cl)cc1,Activity,HUVEC [1],Toxic
CC1(C)CC(OC(=O)c2ccc(/C=C/S(=O)(=O)Cc3ccc(F)cc3)cc2)CC(C)(C)N1[O],Activity,HUVEC [2],Non-Toxic
same,Activity,HUVEC [3],Active
same,Activity,HUVEC [4],7.1%
same,Activity,HUVEC [5],2.7%
same,Activity,HUVEC [6],1.4%
same,viability at 0.1 µM,HUVEC [7],88.8%
same,Activity,HUVEC [8],6.8%
same,Activity,HUVEC [9],1.4%
same,Activity,HUVEC [10],1%
same,viability at 1 µM,HUVEC [11],90.8%
same,Activity,HUVEC [12],13%
same,Activity,HUVEC [13],4%
same,Activity,HUVEC [14],1.9%
same,viability at 0.01 µM,HUVEC [15],81%
O=C(O)c1ccc(/C=C/S(=O)(=O)Cc2ccc(C(F)(F)F)cc2)cc1,Activity,HUVEC [1],Toxic
O=C(O)c1ccc(/C=C/S(=O)(=O)Cc2ccccc2)cc1,Activity,HUVEC [1],Toxic
CC(c1ccccc1)S(=O)(=O)/C=C/c1ccc(C(=O)OC2CC(C)(C)N([O])C(C)(C)C2)cc1 (configuration not stated),Activity,HUVEC [2],Non-Toxic
CC(c1ccccc1)S(=O)(=O)/C=C/c1ccc(C(=O)O)cc1 (configuration not stated),Activity,HUVEC [1],Toxic
same,Activity,HUVEC [16],Active
same,Activity,HUVEC [17],Active
O=C(O)c1ccc(/C=C/S(=O)(=O)Cc2ccc(F)cc2)cc1,Activity,HUVEC [1],Toxic
same,Activity,HUVEC [16],inactive
same,Activity,HUVEC [4],7.3%
same,Activity,HUVEC [5],0.8%
same,Activity,HUVEC [6],1.5%
same,viability at 0.1 µM,HUVEC [7],90.4%
same,Activity,HUVEC [8],10.5%
same,Activity,HUVEC [9],2.3%
same,Activity,HUVEC [10],1.6%
same,viability at 1 µM,HUVEC [11],85.6%
same,Activity,HUVEC [18],4.7%
same,Activity,HUVEC [19],1%
same,Activity,HUVEC [20],1%
same,viability at 10 µM,HUVEC [21],93.4%
same,Activity,HUVEC [22],Active
same,Activity,HUVEC [23],Active
same,Activity,HUVEC [24],Active
same,Activity,HUVEC [25],Active
same,Activity,HUVEC [26],Active
Cc1ccc(/C=C/S(=O)(=O)Cc2ccc(Cl)cc2)cc1,Activity,HUVEC [1],Toxic
CC1(C)CC(OC(=O)c2ccc(/C=C/S(=O)(=O)Cc3ccc(OC(F)(F)F)cc3)cc2)CC(C)(C)N1[O],Activity,HUVEC [2],Non-Toxic
same,Activity,HUVEC [3],inactive
same,Activity,HUVEC [27],Active
same,Activity,HUVEC [4],12.7%
same,Activity,HUVEC [5],2%
same,Activity,HUVEC [6],0.6%
same,viability at 0.1 µM,HUVEC [7],84.7%
same,Activity,HUVEC [8],6.9%
same,Activity,HUVEC [9],1.1%
same,Activity,HUVEC [10],1.7%
same,viability at 1 µM,HUVEC [11],90.3%
same,Activity,HUVEC [12],15%
same,Activity,HUVEC [13],1.4%
same,Activity,HUVEC [14],1.1%
same,viability at 0.01 µM,HUVEC [15],82.5%
same,Activity,HUVEC [28],Active
same,Activity,HUVEC [29],Active
same,Activity,HUVEC [30],Active
same,Activity,HUVEC [31],Active
same,Activity,HUVEC [32],Active
O=C(O)c1ccc(/C=C/S(=O)(=O)Cc2ccc(OC(F)(F)F)cc2)cc1,Activity,HUVEC [1],Toxic
same,viability at 0.1 µM,HUVEC [33],50%
same,Activity,HUVEC [17],Active
same,Activity,HUVEC [4],7.8%
same,Activity,HUVEC [5],4.7%
same,Activity,HUVEC [6],4.3%
same,viability at 0.1 µM,HUVEC [7],83.3%
same,Activity,HUVEC [8],8.5%
same,Activity,HUVEC [9],6.2%
same,Activity,HUVEC [10],3.4%
same,viability at 1 µM,HUVEC [11],81.9%
same,Activity,HUVEC [18],7%
same,Activity,HUVEC [19],8.1%
same,Activity,HUVEC [20],3%
same,viability at 10 µM,HUVEC [21],81.9%
same,Activity,HUVEC [22],Active
same,Activity,HUVEC [23],Active
same,Activity,HUVEC [24],Active
same,Activity,HUVEC [25],Active
same,Activity,HUVEC [26],Active
Cc1ccc(CS(=O)(=O)/C=C/c2ccc(C(=O)O)cc2)cc1,Activity,HUVEC [1],Toxic
CC1(C)CC(OC(=O)c2ccc(/C=C/S(=O)(=O)Cc3ccc(Cl)cc3)cc2)CC(C)(C)N1[O],Activity,HUVEC [2],Non-Toxic
same,Activity,HUVEC [3],Active
same,Activity,HUVEC [27],Active
same,Activity,HUVEC [4],6.2%
same,Activity,HUVEC [5],2.5%
same,Activity,HUVEC [6],1.3%
same,viability at 0.1 µM,HUVEC [7],90%
same,Activity,HUVEC [8],11.7%
same,Activity,HUVEC [9],2.9%
same,Activity,HUVEC [10],2.1%
same,viability at 1 µM,HUVEC [11],83.3%
same,Activity,HUVEC [12],11.2%
same,Activity,HUVEC [13],2.2%
same,Activity,HUVEC [14],1.9%
same,viability at 0.01 µM,HUVEC [15],84.7%
same,Activity,HUVEC [28],Active
same,Activity,HUVEC [29],Active
same,Activity,HUVEC [30],Active
same,Activity,HUVEC [31],Active
same,Activity,HUVEC [32],Active
